Measured values published in US10654814B2, “Bicyclic hydroxamic acids useful as inhibitors of mammalian histone deacetylase activity” (KANCERA AB, priority 2015, dated 2020).
Structures can show the parent of a compound that is named as a salt.

What follows are molecules tested against HDAC6 (Homo sapiens (Human), UniProt Q9UBN7) (assay: HDAC6 in vitro enzymatic assay (fluorescence)). Conditions: Table 3; read-out: IC50 (nM) for inhibition of HDAC6.
Assay type: biochemical
Procedure: Biological Tests Method for Measurement of Enzymatic Activity of HDACs Materials & Methods
All Examples were tested in HDAC1,2,3,6 and 8 in vitro enzymatic assays. The assay principle is well known (Hauser et al. 2009, Bradner et al. 2010) and all necessary reagents like enzymes, substrates, developer and reference compounds are commercially available (see e.g. BPS Biosciences http://www.bpsbioscience.com/). Stock solutions (10 mM in DMSO) of compounds were serially diluted 1:3 in 11 concentrations with a top concentration of 200 μM for HDAC1,2,3 and 2 μM for HDAC6 and HDAC8. The enzymatic reactions were conducted in a mixture containing assay buffer, bovine serum albumin, HDAC substrate, and a test compound. After enzymatic reaction, developer was added and after an additional incubation time, fluorescence intensity was measured at an excitation wavelength of 360 nm and an emission wavelength of 460 nm. All experiments were performed in duplicate.

Sequence of HDAC6 (Q9UBN7 whole entry): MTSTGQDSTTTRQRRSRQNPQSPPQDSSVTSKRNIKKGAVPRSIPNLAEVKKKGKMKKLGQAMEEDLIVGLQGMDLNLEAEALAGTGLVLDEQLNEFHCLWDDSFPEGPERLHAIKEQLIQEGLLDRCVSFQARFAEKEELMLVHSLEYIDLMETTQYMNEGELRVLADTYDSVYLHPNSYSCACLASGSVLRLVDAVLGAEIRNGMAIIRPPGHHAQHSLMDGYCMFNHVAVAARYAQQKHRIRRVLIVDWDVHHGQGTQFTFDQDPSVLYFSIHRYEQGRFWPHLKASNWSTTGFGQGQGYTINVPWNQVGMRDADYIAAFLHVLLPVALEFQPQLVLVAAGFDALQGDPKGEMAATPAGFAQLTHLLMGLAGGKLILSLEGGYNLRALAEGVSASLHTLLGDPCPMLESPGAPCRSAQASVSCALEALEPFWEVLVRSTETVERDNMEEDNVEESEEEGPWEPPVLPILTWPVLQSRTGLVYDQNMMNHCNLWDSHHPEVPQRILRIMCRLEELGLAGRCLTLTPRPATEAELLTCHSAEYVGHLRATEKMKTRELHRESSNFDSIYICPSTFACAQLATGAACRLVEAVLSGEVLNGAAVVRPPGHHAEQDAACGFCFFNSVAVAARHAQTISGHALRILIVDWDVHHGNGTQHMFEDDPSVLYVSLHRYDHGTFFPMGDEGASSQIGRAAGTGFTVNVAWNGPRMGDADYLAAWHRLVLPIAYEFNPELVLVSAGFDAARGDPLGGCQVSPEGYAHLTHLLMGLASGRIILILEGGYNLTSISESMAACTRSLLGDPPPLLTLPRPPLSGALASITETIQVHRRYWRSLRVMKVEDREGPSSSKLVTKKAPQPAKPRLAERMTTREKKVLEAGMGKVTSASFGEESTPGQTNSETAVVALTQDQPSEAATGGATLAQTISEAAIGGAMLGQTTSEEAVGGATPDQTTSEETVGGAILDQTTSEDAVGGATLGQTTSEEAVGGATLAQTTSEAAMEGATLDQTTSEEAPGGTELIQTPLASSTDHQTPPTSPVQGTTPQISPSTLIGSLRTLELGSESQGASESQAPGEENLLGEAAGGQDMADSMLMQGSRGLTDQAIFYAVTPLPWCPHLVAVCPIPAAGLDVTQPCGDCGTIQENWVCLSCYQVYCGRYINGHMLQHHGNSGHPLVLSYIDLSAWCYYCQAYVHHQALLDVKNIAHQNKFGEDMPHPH

Compound | IC50
Cn1c(N(Cc2ccccc2)c2ccccc2)nc2cc(C(=O)NO)ccc21 [Example 141, 2-(benzyl(phenyl)amino)-N-hydroxy-1-methyl-1H-benzo[d]imidazole-5-carboxamide] | 22 nM
CC(C)(C)c1ccc(OCc2cc3cc(C(=O)NO)ccc3o2)cc1 [Example 163, 2-[(4-tert-Butylphenoxy)methyl]-N-hydroxy-1-benzofuran-5-carboxamide] | 58 nM
CC(C)c1ccc(NCc2nc3cc(C(=O)NO)ccc3s2)cc1 [Example 275, N-Hydroxy-2-({[4-(1-methylethyl)phenyl]amino}methyl)-1,3-benzothiazole-5-carboxamide] | 8 nM
COc1ccc(F)cc1-c1cc2cc(C(=O)NO)ccc2s1 [Example 106, 2-(5-fluoro-2-methoxyphenyl)-N-hydroxy-1-benzothiophene-5-carboxyamide] | 86 nM
COCCN(C)Cc1cccc(-c2nc3cc(C(=O)NO)ccc3o2)c1 [Example 205, N-hydroxy-2-(3-{[(2-methoxy-ethyl)(methyl)amino]methyl}phenyl)-1,3-benzoxazole-5-carboxamide trifluoroacetate] | 64 nM
Cn1c(Nc2cccc(-c3ccccc3)c2)nc2cc(C(=O)NO)ccc21 [Example 144, 2-([1,1′-biphenyl]-3-ylamino)-N-hydroxy-1-methyl-1H-benzo[d]imidazole-5-carboxamide] | 7 nM
CN(C)Cc1ccc(-c2cc3ccc(C(=O)NO)cc3o2)cc1 [Example 283, 2-{4-[(dimethylamino)methyl]phenyl}-N-hydroxy-1-benzofuran-6-carboxamide trifluoroacetate] | 7 nM
C[C@@H]1CN(Cc2cccc(-c3nc4cc(C(=O)NO)ccc4o3)c2)C[C@H](C)O1 [Example 202, 2-(3-{[(cis)-2,6-dimethylmorpholin-4-yl]methyl}phenyl)-N-hydroxy-1,3-benzoxazole-5-carboxamide trifluoroacetate] | 53 nM
O=C(NO)c1ccc2oc(-c3ccccc3CO)cc2c1 [Example 281, N-hydroxy-2-[2-(hydroxymethyl)phenyl]-1-benzofuran-5-carboxamide] | 92 nM
O=C(NO)c1ccc2sc(Cc3ccc(-c4ccncc4)cc3)nc2c1 [Example 272, N-Hydroxy-2-(4-pyridin-4-ylbenzyl)-1,3-benzothiazole-5-carboxamide trifluoroacetate] | 6 nM
O=C(NO)c1ccc2cc(-c3ccoc3)sc2c1 [Example 149, 2-furan-3-yl-N-hydroxy-1-benzothiophene-6-carboxamide] | 49 nM
O=C(NO)c1ccc2oc(NC3CCCCCCC3)nc2c1 [Example 232, 2-(cyclooctylamino)-N-hydroxy-1,3-benzoxazole-5-carboxamide] | 51 nM
O=C(NO)c1ccc2oc(NC3(c4cccc(F)c4)CCCCC3)nc2c1 [Example 262, 2-{[1-(3-fluorophenyl)cyclohexyl]amino}-N-hydroxy-1,3-benzoxazole-5-carboxamide] | 9 nM
O=C(NO)c1ccc2sc(-c3ccc4[nH]ccc4c3)cc2c1 [Example 95, N-hydroxy-2-(1H-indol-5-yl)-1-benzothiophene-5-carboxamide] | 22 nM
COc1ccc(CN(CCN(C)C)c2nc3cc(C(=O)NO)ccc3o2)cc1OC [Example 244, 2-{(3,4-dimethoxybenzyl)[2-(dimethylamino)ethyl]amino}-N-hydroxy-1,3-benzoxazole-5-carboxamide trifluoroacetate] | 63 nM
Cn1c(N2CCc3ccccc3C2)nc2cc(C(=O)NO)ccc21 [Example 145, 2-(3,4-dihydroisoquinolin-2(1H)-yl)-N-hydroxy-1-methyl-1H-benzo[d]imidazole-5-carboxamide] | 42 nM
CCN(CC)c1ccc(-c2nc3cc(C(=O)NO)ccc3o2)cc1 [Example 33, 2-[4-(Diethylamino)phenyl]-N-hydroxy-1,3-benzoxazole-5-carboxamide trifluoroacetate] | 22 nM
O=C(NO)c1ccc2oc(-c3ccc(-c4ccc(CN5CCCCC5)cc4)cc3)nc2c1 [Example 30, N-Hydroxy-2-[4′-(piperidin-1-ylmethyl)biphenyl-4-yl]-1,3-benzoxazole-5-carboxamide trifluoroacetate] | 14 nM

Continued, values first:

IC50 | Compound
25 nM | CC(C)c1ccc(-c2nc3cc(C(=O)NO)cnc3o2)cc1 [Example 83, N-Hydroxy-2-[4-(1-methylethyl)phenyl][1,3]oxazolo[5,4-b]pyridine-6-carboxamide]
9 nM | CC(C)c1ccc(-c2nc3ccc(C(=O)NO)cc3o2)cc1 [Example 49, N-Hydroxy-2-[4-(1-methylethyl)phenyl]-1,3-benzoxazole-6-carboxamide]
34 nM | O=C(NO)c1ccc2nc(-c3ccc(F)cc3)oc2c1 [Example 50, 2-(4-Fluorophenyl)-N-hydroxy-1,3-benzoxazole-6-carboxamide]
63 nM | CN(Cc1ccccc1)c1nc2cc(C(=O)NO)ccc2o1 [Example 44, 2-[benzyl(methyl)amino]-N-hydroxy-1,3-benzoxazole-5-carboxamide]
7 nM | O=C(NO)c1ccc2oc(-c3cccc(Br)c3)nc2c1 [Example 16, 2-(3-bromophenyl)-N-hydroxy-1,3-benzoxazole-5-carboxamide]
14 nM | O=C(NO)c1ccc2oc(Nc3ccccc3)nc2c1 [Example 42, N-Hydroxy-2-(phenylamino)-1,3-benzoxazole-5-carboxamide]
36 nM | O=C(NO)c1ccc2oc(-c3ccc(F)c(F)c3)nc2c1 [Example 5, 2-(3,4-difluorophenyl)-N-hydroxy-1,3-benzoxazole-5-carboxamide]
20 nM | O=C(NO)c1ccc2oc(-c3ccc(-c4ccccc4)cc3F)nc2c1 [Example 173, 2-(3-Fluorobiphenyl-4-yl)-N-hydroxy-1,3-benzoxazole-5-carboxamide]
38 nM | CC(C)c1ccc(-c2nc3cc(C(=O)NO)ccc3o2)cc1F [Example 211, 2-[3-Fluoro-4-(1-methylethyl)phenyl]-N-hydroxy-1,3-benzoxazole-5-carboxamide]
31 nM | Cc1noc(C)c1-c1ccc(-c2nc3cc(C(=O)NO)ccc3o2)cc1 [Example 181, 2-[4-(3,5-dimethylisoxazol-4-yl)phenyl]-N-hydroxy-1,3-benzoxazole-5-carboxamide]
33 nM | COc1cccc2cc(-c3nc4cc(C(=O)NO)ccc4s3)oc12 [Example 81, N-Hydroxy-2-(7-methoxy-1-benzofuran-2-yl)-1,3-benzothiazole-5-carboxamide]
22 nM | CC(C)(C)c1ccc(-c2nc3ccc(C(=O)NO)cc3o2)cc1 [Example 51, 2-(4-tert-butylphenyl)-N-hydroxy-1,3-benzoxazole-6-carboxamide]
96 nM | COc1ccc(-c2cc3cc(C(=O)NO)ccc3o2)cn1 [Example 278, N-hydroxy-2-(6-methoxypyridin-3-yl)-1-benzofuran-5-carboxamide]
31 nM | O=C(NO)c1ccc2oc(Nc3cccc(OCc4ccccc4)c3)nc2c1 [Example 47, 2-{[3-(benzyloxy)phenyl]amino}-N-hydroxy-1,3-benzoxazole-5-carboxamide]
27 nM | Cc1[nH]c2ccccc2c1-c1nc2cc(C(=O)NO)ccc2o1 [Example 228, N-hydroxy-2-(2-methyl-1H-indol-3-yl)-1,3-benzoxazole-5-carboxamide]
